Assay results taken from patent US20250074907A1, “INHIBITORS OF SARS-COV-2” (THE TEXAS A&M UNIVERSITY SYSTEM, priority 2021, published 2025).

target: main protease (Mpro) of SARS-CoV-2 (Severe acute respiratory syndrome coronavirus 2 (2019-nCoV) (SARS-CoV-2), UniProt P0DTD1); experiment: Enzyme IC50 of SARS-CoV-2 inhibitors; assay type: biochemical; details: Table 1, Example SARS-COV-2 inhibitors

Row | Compound | IC50 [nM]
1 | Cc1cncc(-c2nnc3n2CCN(C(c2ccccc2)c2ccccc2)C3)c1 [PKJ-585] | 5800

same assay, conditions: Table 2, List of compounds

Row | Compound | IC50 [nM]
2 | O=C1Cc2ccccc2C(=C2CCN(C(=O)c3cncc4cc[nH]c34)CC2)c2ccccc21 [NZ- 839] | 18
3 | Cc1cncc(C(=O)N2CCN(C3c4cc(F)ccc4CS(=O)(=O)c4ccccc43)CC2)c1 (centres unmarked) [NZ- 833, [4-(9-fluoro-5,5-dioxo-6,11-dihydrobenzo[c][1]benzothiepin-11-yl)piperazin-1-yl]-(5-methyl-3-pyridyl)methanone] | 66 to 130
4 | Cc1cncc(C(=O)N2CCN(C3c4ccccc4CS(=O)(=O)c4ccc(F)cc43)CC2)c1 (centres unmarked) [NZ- 831, [4-(2-fluoro-5,5-dioxo-6,11-dihydrobenzo[c][1]benzothiepin-11-yl)piperazin-1-yl]-(5-methyl-3-pyridyl)methanone] | 45
5 | N=S1(=O)Cc2ccccc2C(=C2CCN(C(=O)c3cncc4cc[nH]c34)CC2)c2ccccc21 (centres unmarked) [NZ- 830, [4-(5-imino-5-oxo-6H-benzo[c][1]benzothiepin-11-ylidene)-1-piperidyl]-(1H-pyrrolo [3,2-c]pyridin-7-yl)methanone] | 32 to 39
6 | O=C(c1cncc2cc[nH]c12)N1CCN(C2c3cc(F)ccc3CS(=O)(=O)c3ccccc32)CC1 (centres unmarked) [NZ- 834, [4-(9-fluoro-5,5-dioxo-6,11-dihydrobenzo[c][1]benzothiepin-11-yl)piperazin-1-yl]-(1H-pyrrolo[3,2-c]pyridin-7-yl)methanone] | 14 to 47
7 | O=C(c1cncc2cc[nH]c12)N1CCC(=C2c3ccccc3C3OC3c3ccccc32)CC1 (centres unmarked) [NZ- 838] | 91
8 | O=C(c1cncc2cc[nH]c12)N1CCN(C2c3ccccc3CS(=O)(=O)c3ccc(F)cc32)CC1 (centres unmarked) [NZ- 832, [4-(2-fluoro-5,5-dioxo-6,11-dihydrobenzo[c][1]benzothiepin-11-yl)piperazin-1-yl]-(1H-pyrrolo[3,2-c]pyridin-7-yl)methanone] | 18
9 | Cc1cncc(C(=O)N2CCC(=C3c4ccccc4CS(=N)(=O)c4ccccc43)CC2)c1 (centres unmarked) [NZ- 827, [4-(5-imino-5-oxo-6H-benzo[c][1]benzothiepin-11-ylidene)-1-piperidyl]-(5-methyl-3-pyridyl)methanone] | 57
10 | O=C(c1cncc2cc[nH]c12)N1CCC(=C2c3ccccc3CSc3ccccc32)CC1 [NZ- 828, [4-(6H-benzo[c][1]benzothiepin-11-ylidene)-1-piperidyl]-(1H-pyrrolo[3,2-c]pyridin-7-yl)methanone] | 21 to 33
11 | Cc1cncc(C(=O)N2CCC(=C3c4ccccc4CC(=O)c4sccc43)CC2)c1 [NZ- 835, 2-[1-(5-methylpyridine-3-carbonyl)-4-piperidylidene]-6-thiatricyclo[8.4.0.03,7]tetradeca-1(10),3(7),4,11,13-pentaen-8-one] | 27 to 48
12 | O=C(c1cncc2cc[nH]c12)N1CCC(=C2c3ccccc3C[S+]([O-])c3ccccc32)CC1 (centres unmarked) [NZ- 829, [4-(5-oxo-6H-benzo[c][1]benzothiepin-11-ylidene)-1-piperidyl]-(1H-pyrrolo[3,2-c]pyridin-7-yl)methanone] | 15 to 31
13 | O=C1Cc2ccccc2C(=C2CCN(C(=O)c3cncc4cc[nH]c34)CC2)c2ccsc21 [NZ- 836] | 9 to 20
14 | Cc1cncc(C(=O)N2CCC(=C3c4ccccc4C[S+]([O-])c4ccccc43)CC2)c1 (centres unmarked) [NZ- 826, (5-methyl-3-pyridyl)-[4-(5-oxo-6H-benzo[c][1]benzothiepin-11-ylidene)-1-piperidyl]methanone] | 60 to 70
